# Measured values as given in patent US11236354B2, “Glyphosate-n-acetyltransferase (GLYAT) sequences and methods of use” (PIONEER HI-BRED INTERNATIONAL, INC., priority 2013, dated 2022).
# What was measured:
# Experiment in all cases: Substrate saturation kinetic analysis of purified GLYAT
# [1] = target: GLYAT high specificity variant SEQ ID NO:29 (derived from SEQ ID NO:1 and 2; C29I, F31Y; motif VIMYETDLL, SEQ ID NO:174) (Bacillus licheniformis, UniProt Q65LG7); assay type: biochemical
# Description: E. coli cultures in LB or 2×YT were grown overnight at 37° C. to saturation. The cells were used as a 2% inoculum into fresh media. When OD reached 0.6, IPTG was added to 0.2 mM and growth was continued for at least 6 hours. Cells were harvested by centrifugation and stored at −80° C. Cells were lysed with BPER (Pierce) containing 1 mM dithiothreitol, 0.2 mg/ml lysozyme, 2 mg/ml protease inhibitor cocktail (Sigma bacterial cell cocktail, P8465) and endonuclease. […] Purity as evaluated by polyacrylamide gel electrophoresis was deemed consistently high enough to be assumed to be 100%. Protein concentration was determined with the Bradford assay using a large-scale lot of produced GLYAT protein as standard.
# Kinetic parameters for various substrates were obtained using a range of seven substrate concentrations plus a blank containing none of the varied substrate. […] Absorbance was monitored for one minute with a Spectramax 384 Plus plate reader (Molecular Devices). If the amino acid present at position 30 (29 if alanine is absent at position 2) was cysteine, absorbance was monitored at 235 nm, which directly detects cleavage of the sulfoester bond of acetyl CoA. […]
# [2] = target: GLYAT variant SEQ ID NO:7 (derived from SEQ ID NO:1 and 2) (Bacillus licheniformis, UniProt Q65LG7, A28V/D131E/E119K/E14D/E65Q/E67K/E68K/E79G/E83D/G37R/G38S/G48A/I132L/I135A/I15L/I19V/I2L/I53V/I91V/K101R/K144R/K58Q/L105M/L106I/L26I/L36T/L97I/M75V/N109F/R47G/R92K/T33S/T89S/V114A/Y130F/Y31W/Y45F); assay type: biochemical
# Description: (§1) E. coli cultures in LB or 2×YT were grown overnight at 37° C. to saturation. The cells were used as a 2% inoculum into fresh media. When OD reached 0.6, IPTG was added to 0.2 mM and growth was continued for at least 6 hours. Cells were harvested by centrifugation and stored at −80° C. Cells were lysed with BPER (Pierce) containing 1 mM dithiothreitol, 0.2 mg/ml lysozyme, 2 mg/ml protease inhibitor cocktail (Sigma bacterial cell cocktail, P8465) and endonuclease. Lysate supernatants were passed through a column of NHS-activated Agarose (Thermo, #26197) derivatized with coenzyme A. Columns were washed with 25 mM Hepes, pH 7, containing progressively higher concentrations of KCl, then eluted with 25 mM Hepes, 100 mM KCl, 10% ethylene glycol and 1 mM acetyl CoA. Purity as evaluated by polyacrylamide gel electrophoresis was deemed consistently high enough to be assumed to be 100%. Protein concentration was determined with the Bradford assay using a large-scale lot of produced GLYAT protein as standard.
# (§2) Kinetic parameters for various substrates were obtained using a range of seven substrate concentrations plus a blank containing none of the varied substrate. The non-varied substrate was present at a saturating concentration. Six-microliter aliquots of 50-fold concentrated stock solutions of the varied substrate were placed in a 96-well assay plate (Greiner BioOne UV-Star). Reactions were started with the addition of 294 ul of 25 mM Hepes, pH 7.0, 100 mM KCL, 10% ethylene glycol, the non-varied substrate and 10 to 200 nM enzyme. Absorbance was monitored for one minute with a Spectramax 384 Plus plate reader (Molecular Devices). If the amino acid present at position 30 (29 if alanine is absent at position 2) was cysteine, absorbance was monitored at 235 nm, which directly detects cleavage of the sulfoester bond of acetyl CoA. If the amino acid present at position 30 (29 if alanine is absent at position 2) was isoleucine, 0.5 mM 5,5′-dithiobis-(2-nitrobenzoic acid), which reacts with the coenzyme A thiol generated in the enzyme catalyzed reaction, was included in the reaction mix and absorbance was monitored at 412 nm. Initial rates were processed by the Softmax software to obtain kinetic parameters, using the double-reciprocal transformation.
# [3] = target: T1, native GLYAT (glyphosate-N-acetyltransferase), SEQ ID NO:173 (Bacillus licheniformis, UniProt Q65LG7); assay type: biochemical; conditions: Table 5; native GLYAT SEQ ID NO:173; ratio of kcat/Km asp to kcat/Km glyph
# T1 sequence (Q65LG7 1-146): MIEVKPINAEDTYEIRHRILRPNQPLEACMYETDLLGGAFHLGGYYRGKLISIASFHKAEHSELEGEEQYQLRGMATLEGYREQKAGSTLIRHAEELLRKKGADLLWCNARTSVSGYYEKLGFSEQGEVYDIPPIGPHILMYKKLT
# Description: as §1, §2
# [4] = target: novel GLYAT variants of Table 3 (high specificity variants derived from SEQ ID NO:1 and 2) (Bacillus licheniformis, UniProt Q65LG7); assay type: biochemical; conditions: lowest value in novel variants
# Description: as §1, §2
# [5] = target: GLYAT variant SEQ ID NO:6 (derived from SEQ ID NO:1 and 2) (Bacillus licheniformis, UniProt Q65LG7, A28V/D131E/E119K/E14D/E65Q/E67K/E68K/G37R/I132T/I135A/I15L/I19V/I53V/I91V/K101R/K144R/K58Q/L105M/L106I/L26I/L36T/L97I/M75A/R47G/R92K/T89S/V114A/V4I/Y130F/Y45F/Y46C); conditions: pH 7.0
# [6] = target: GLYAT variant SEQ ID NO:10 (derived from SEQ ID NO:1 and 2) (Bacillus licheniformis, UniProt Q65LG7, A28V/D131E/E14D/E65Q/E67K/E68K/G37R/G38S/H61R/I132T/I135A/I15L/I19V/I53V/I91V/K101R/K144R/K58Q/L105M/L106I/L26I/L97I/M75V/R47G/R92K/T89S/V114A/Y130F/Y45F); conditions: pH 7.0
# [7] = pH 7.0, non-varied substrate saturating
structure (smiles),measurement,setting,value
N[C@@H](CC(=O)O)C(=O)O [aspartate],activity with aspartate (kcat/Km),"[1]; 25 mM Hepes, pH 7.0",8 M⁻¹ s⁻¹
same,"kcat/Km asp, % glyph","[1]; Table 5, ratio of kcat/Km asp to kcat/Km glyph",0.013%
same,Asp as % of glyph (kcat/KM asp / kcat/KM glyph),[2]; pH 7.0,0.154%
same,kcat (aspartate),[2]; [7],1.52 s⁻¹
same,kcat/KM (aspartate),[2]; [7],13.7 M⁻¹ s⁻¹
same,"kcat/Km asp, % glyph",[3],55.6%
same,specificity (kcat/KM asp/kcat/KM glyph),[4],≥ 0.014%
same,kcat/KM with aspartate,"[4]; 25 mM Hepes, pH 7.0",≥ 1.7 M⁻¹ s⁻¹
same,Asp as % of glyph (kcat/KM asp / kcat/KM glyph),[5],0.052%
same,Asp as % of glyph (kcat/KM asp / kcat/KM glyph),[6],0.091%
